Where two headings read alike, the source gives them in different places.
Legend:
c-jun = assay: Western blot of anisomycin-induced c-jun phosphorylation in MOVCAR cells; type: cell-based, mouse
Description: (§1) The results are representative of several experiments.
(§2) Cells were washed in PBS and lysates were prepared in 1× Passive lysis buffer (PLB) provided with the Dual luciferase reporter assay kit (Promega). The lysates were cleared by centrifugation and the protein concentration was determined by Bradford assay (Bio-Rad, Hercules Calif.). […] of protein were loaded onto a NuPAGE 4-12% Bis-Tris gradient gel with MOPS-buffer (Invitrogen, Carlsbad Calif.) for polyacrylamide gel electrophoresis. Following transfer to a nitrocellulose by electroblotting, the membrane was blocked in 5% milk Tris-buffered saline/Tween20 (TBS-T) for 1 h at room temperature and incubated with primary antibody (pJNK, c-jun and phosph c-jun antibodies were purchased from Cell Signalling, Danvers, Mass.; amd JNK antibody was published from Santa Cruz Biotechnology, Calif.) overnight at 4° C. in 5% BSA followed by incubation with secondary horseradish peroxidase conjugated anti-rabbit antibody (Jackson ImmunoResearch, Westgrove Pa.) for 1 h. Immunoreactive proteins were detected by enhanced chemiluminescence (Pierce, Rockford Ill.). Anisomycin was purchased from Calbiochem.
(§3) The known Jun kinase activator anisomycin was used as a positive control (Hazzalin, 1998). […] Further, MIS had no effect on phosphorylation of JNK by anisomycin.

rat MISRII = molecular target: T1, rat MISRII (Rattus norvegicus, UniProt Q62893); assay: BRE-luciferase reporter assay in COS7 cells transfected with MISRII; type: cell-based
T1 construct: expressed in transfected cells; host or cells: COS7
T1 sequence (Q62893 18-557): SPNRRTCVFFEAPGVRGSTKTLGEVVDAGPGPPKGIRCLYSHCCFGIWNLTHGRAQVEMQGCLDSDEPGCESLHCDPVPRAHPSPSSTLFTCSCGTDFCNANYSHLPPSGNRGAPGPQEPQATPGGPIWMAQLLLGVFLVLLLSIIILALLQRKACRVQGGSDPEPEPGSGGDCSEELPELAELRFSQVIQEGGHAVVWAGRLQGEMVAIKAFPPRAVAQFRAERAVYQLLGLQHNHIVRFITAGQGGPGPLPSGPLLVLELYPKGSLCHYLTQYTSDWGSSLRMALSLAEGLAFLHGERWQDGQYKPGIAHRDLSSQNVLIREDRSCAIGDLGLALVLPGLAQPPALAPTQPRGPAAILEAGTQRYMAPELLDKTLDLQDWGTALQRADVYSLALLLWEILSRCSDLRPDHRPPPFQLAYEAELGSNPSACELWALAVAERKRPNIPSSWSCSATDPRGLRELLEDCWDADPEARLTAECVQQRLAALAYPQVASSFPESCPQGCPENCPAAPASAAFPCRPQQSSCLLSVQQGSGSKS
Source text: COS7 cells were transiently transfected with MISRH, BRE-Luciferase and phRL-CMV. […] Control cells were transfected with a control plasmid (EGFP-N1 plasmid) instead of the receptor plasmid to keep the total DNA transfected constant. The results shown are the fold-induction over vehicle treated cells and normalized to phRL-CMV expression to correct for variations in cell number and transfection efficiency. […] The results represent the mean values from three independent experiments performed in triplicates (Error bars represent SEM, *p<0.05, **p<0.001).
To identify molecules that interact with the MISRII, we developed a reporter assay where binding to MISRII activates a firefly luciferase reporter driven by the BMP-responsive element (BRE) promoter kindly provided by Dr. Peter ten Dijke (The Netherlands Cancer Institute, The Netherlands) The BMP promoter region on mouse M. mus is located on chromosome 2 (Chr2) and corresponds to RefSeq No: NT—039207.6 93504644-93506272 (SEQ ID NO:1). The BRE-luciferase reporter (Korchynskyi and ten Dijke, 2002, Logeart-Avramoglou, 2006) has multiple optimized BMP response elements (3 SBE, 7 GC, and 4 CAGC) driving the expression of the firefly luciferase. This reporter construct together with a control Renilla luciferase reporter phRL-CMV (Promega, Madison Wis.) and a rat MISRII cDNA expression construct (Teixeira, 1996) were transiently transfected into COST cells and plated in 384 well plates. Primary screens were performed at the Harvard Institute of Chemistry and Cell Biology screening facility. Compounds from chosen libraries were added at a volume of 100 nl at 5 mg/ml concentration in DMSO into 30 μl cell media and cultured for 24 h at 37° C., after which the luciferase activity was measured with reagents from Promega according to the manufacturer's instructions. A hit was identified as causing a fold induction over the plate median and each compound was tested in duplicate in separate plates. MIS was used to control for intra- and inter-assay variability.
COS7 cells were plated at a density of 5000 cells/well in 96-well plates for secondary screens. The day after plating cells were transfected with rat MISRII receptor or EGFP-N1 (Clontech, Mountain View Calif.) together with BRE firefly luciferase reporter construct and phRL-CMV using TransIT-LT1 transfection reagent (Mirus Bio Corporation, Madison Wis.). […] Results were obtained using the Dual Luciferase reporter assay according to the manufacturer's instructions (Promega). Plates were read in a Wallac Victor2 luminometer (PerkinElmer, Wellesley Mass.).

JNK = assay: Immunoblot of JNK phosphorylation in MOVCAR7 cells; type: cell-based, mouse
Description: as §1, §2, §3

MOVCAR7 cells = assay: MTT proliferation assay, MOVCAR7 cells; type: cell-based; conditions: Mus musculus, 168 h
Description: Cells were plated in 96-well plates and treated the day after. Seven days after plating the cell survival was measured using 3-(4,5-dimethylthiazol-2-yl)-2,5-diphenyltetrazolium bromide substrate and measuring the absorbance at 550 nm.
(Connolly, 2003). The 4306 cells were provided by Dr. Daniela Dinulescu, Brigham and Women's (Boston) (30). Cells were plated at a density of 1000 cells/well in 96-well plates and treated 24 h later. The cell proliferation was measured after 7 days by registering the absorbance at 550 nm. Paclitaxel was manufactured by Ivax Pharmaceuticals and obtained from the MGH pharmacy.
The cells were treated for 7 days and the proliferation was measured by spectrophotometry. To exclude cytotoxic effects on the cells unrelated to MIS signal transduction, we used untransfected COS7 cells as a negative control. […] Paclitaxel is used in treatment of a wide range of tumors, but the side effects can be debilitating (Pieretti-Vanmarcke, 2006a, Pieretti-Vanmarcke, 2006b).

MISRIIK228R = molecular target: T2, MISRIIK228R (Rattus norvegicus, UniProt Q62893, K228R); assay: BRE-luciferase reporter assay in COS7 cells with kinase-deficient receptor MISRIIK228R; type: cell-based; conditions: K228R receptor overexpressed, COS7, 24 hrs, agent alone
T2 construct: expressed in transfected cells; host or cells: COS7
T2 sequence (Q62893 18-557 K228R): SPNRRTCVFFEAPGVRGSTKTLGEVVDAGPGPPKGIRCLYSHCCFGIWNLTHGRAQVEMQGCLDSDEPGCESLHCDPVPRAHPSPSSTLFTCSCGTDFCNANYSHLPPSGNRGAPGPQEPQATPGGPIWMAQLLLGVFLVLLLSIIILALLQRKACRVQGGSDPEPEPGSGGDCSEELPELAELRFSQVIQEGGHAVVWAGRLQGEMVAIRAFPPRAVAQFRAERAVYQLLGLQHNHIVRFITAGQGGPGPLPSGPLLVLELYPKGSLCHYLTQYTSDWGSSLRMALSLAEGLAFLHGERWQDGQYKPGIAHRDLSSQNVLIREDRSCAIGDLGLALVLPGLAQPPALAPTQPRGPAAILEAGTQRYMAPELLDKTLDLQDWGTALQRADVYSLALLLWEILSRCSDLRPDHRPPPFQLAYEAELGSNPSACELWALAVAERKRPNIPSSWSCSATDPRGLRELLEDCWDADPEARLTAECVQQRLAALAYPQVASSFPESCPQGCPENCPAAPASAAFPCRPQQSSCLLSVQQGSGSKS
Source text: Results shown represent the mean values from four independent experiments performed in triplicates (Error bars represent standard error of the mean, *, P<0.05).

endogenous MISRII = molecular target: T3, endogenous MISRII (Mus musculus, UniProt Q8K592); assay: BRE-luciferase reporter assay in MOVCAR7 cells expressing endogenous MISRII; type: cell-based; conditions: 5 μg/ml MIS, MOVCAR7, 24 h
T3 construct: a mouse ovarian cancer cell line, MOVCAR7, that expresses endogenous MISRII; endogenous in cells; host or cells: MOVCAR7 (mouse ovarian cancer cell line)
T3 sequence (Q8K592 16-568): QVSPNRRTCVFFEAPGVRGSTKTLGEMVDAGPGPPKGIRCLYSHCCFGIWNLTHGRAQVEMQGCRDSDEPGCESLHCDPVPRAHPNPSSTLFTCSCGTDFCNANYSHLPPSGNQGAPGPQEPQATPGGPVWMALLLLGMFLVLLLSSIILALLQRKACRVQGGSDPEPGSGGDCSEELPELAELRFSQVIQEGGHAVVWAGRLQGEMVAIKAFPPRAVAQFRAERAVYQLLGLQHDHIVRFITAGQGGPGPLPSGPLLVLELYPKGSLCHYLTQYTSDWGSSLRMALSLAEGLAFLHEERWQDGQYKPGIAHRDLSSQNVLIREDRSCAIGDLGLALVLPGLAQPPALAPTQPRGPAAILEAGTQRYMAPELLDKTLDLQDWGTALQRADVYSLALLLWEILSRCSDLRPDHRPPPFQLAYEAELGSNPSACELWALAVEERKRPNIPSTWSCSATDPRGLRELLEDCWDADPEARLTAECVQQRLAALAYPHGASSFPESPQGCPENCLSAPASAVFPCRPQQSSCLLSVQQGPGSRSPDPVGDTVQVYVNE

Molecule: CCOc1nc(NC(=O)Cc2cc(OC)ccc2OC)cc(N)c1C#N [JNK inhibitor VIII, reference compound]
- inhibiting phosphorylation of c-jun, compared with SP600125 (c-jun): much more effective
- c-jun phosphorylation induced by 500 nM anisomycin (c-jun; pre-treatment 25 uM): inhibited
- effect on BRE-luciferase when combined with MIS (rat MISRII; JNK inhibitor VIII 5, 25 or 50 μM with MIS): no further effect
- activation of BRE-luciferase (rat MISRII; JNK inhibitor VIII at 5, 25 or 50 μM alone, COS7): did not result in any activation

Molecule: COc1ccc(C[C@H]2NC[C@H](O)[C@H]2OC(C)=O)cc1 [anisomycin, reference compound]
- phosphorylation of JNK (positive control) (JNK; 500 nM anisomycin, 30 min): strong activation

Molecule: CC(=O)O[C@H]1C(=O)[C@@]2(C)[C@H]([C@H](OC(=O)c3ccccc3)[C@]3(O)C[C@H](OC(=O)[C@H](O)[C@@H](NC(=O)c4ccccc4)c4ccccc4)C(C)=C1C3(C)C)[C@]1(OC(C)=O)CO[C@@H]1C[C@@H]2O [paclitaxel]
- IC50 (MOVCAR7 cells; read-out: IC50 of paclitaxel combined with SP600125): 0.21 nM
- IC50 (MOVCAR7 cells; MOVCAR7, 7 days, MTT, read-out: IC50 of paclitaxel alone): 0.81 nM

B1: MIS: Recombinant human MIS prepared from Chinese hamster ovary cells stably transfected with the human MIS gene (protein)
chain: LRAEEPAVGTSGLIFREDLDWPPGSPQEPLCLVALGGDSNGSSSPLRVVGALSAYEQAFLGAVQRARWGPRDLATFGVCNTGDRQAALPSLRRLGAWLRDPGGQRLVVLHLEEVTWEPTPSLRFQEPPPGGAGPPELALLVLYPGPGPEVTVTRAGLPGAQSLCPSRDTRYLVLAVDRPAGAWRGSGLALTLQPRGEDSRLSTARLQALLFGDDHRCFTRMTPALLLLPRSEPAPLPAHGQLDTVPFPPPRPSAELEESPPSADPFLETLTRLVRALRVPPARASAPRLALDPDALAGFPQGLVNLSDPAALERLLDGEEPLLLLLRPTAATTGDPAPLHDPTSAPWATALARRVAAELQAAAAELRSLPGLPPATAPLLARLLALCPGGPGGLGDPLRALLLLKALQGLRVEWRGRDPRGPGRAQRSAGATAADGPCALRELSVDLRAERSVLIPETYQANNCQGVCGWPQSDRNPRYGNHVVLLLKMQVRGAALARPPCCVPTAYAGKLLISLSEERISAHHVPNMVATECGCR
- phosphorylation of JNK (JNK; 5 μg/ml MIS, 30 min): no phosphorylation beyond background
- effect of MIS on phosphorylation of JNK by anisomycin (JNK; MIS with anisomycin): no effect
- BRE-luciferase expression, fold induction (rat MISRII; MIS 0.5 ug/ml alone, MISRII-transfected COS7, 24 h): greater than ten-fold
- activation of BRE-luciferase with kinase-deficient receptor (MISRIIK228R): neither MIS nor SP600125 activates BRE-luciferase
- increase of BRE activity compared to untreated cells (endogenous MISRII): 2 fold

— patent publication US9260759B2, “Pyrazoloanthrone and derivatives thereof for the treatment of cancers expressing MISRII” (The General Hospital Corporation, priority 2007, dated 2016)
